# Results published in PubChem BioAssay AID1963850 (Molecular Pharmacology Branch, DTP, NCI, 2024).
# “And” between values parts separate entries of the source, which are not always exact repeats. Equal entries are not always repeated.
# System: 192522-019-R-J2-PDC complex tumor spheroid viability
# Test: Anticancer human tumor 192522-019-R-J2-PDC patient-derived colon adenocarcinoma cell line growth inhibition [POLQ]
# Settings: for viability, T/C: stronger effect = lower value; for IC50: curve of compound
# Method: Multicellular complex tumor spheroid response to Polymerase (POL) inhibitors (novobiocin, ART-558, RP6685) in combination with a variety of drugs and investigational agents in selected tumor cell lines
# The POL inhibitors (novobiocin, ART-558, and RP6685) were evaluated both individually and in combination with standard of care and investigational anticancer small molecules within a complex spheroid model of solid tumors. . Complex spheroids include a stromal component modeled by human endothelial cells (HUVEC) and fibroblasts modeled by human mesenchymal stem cells (MSCs). The concentration ranges selected for each drug and investigational agent were based upon clinically achievable concentrations if the clinical Cmax of the agent was known.
# Compounds. The drugs and investigational agents: novobiocin (NSC847541), ART-558 (NSC835418), RP-6685 (NSC848927), peposertib (NSC802822), ceralasertib (NSC780249), elimusertib (NSC800525), camonsertib (NSC841442), AZD-1390 (NSC803789), olaparib (NSC753686), talazoparib (NSC767125), rucaparib (NSC756644), sotorasib (NSC818433), MRTX-1133 (NSC836407), SN-38 (NSC673596), topotecan (NSC609699), epotoside (NSC141540), doxorubicin (NSC123127), gemcitabine (NSC613327), 5-fluorouracil (NSC19893), paclitaxel (NSC125973), vemurafenib (NSC761431), MSA-2 (NSC828583), SN-011 (NSC837082), adavosertib (NSC754352), prexasertib (NSC758257), carboplatin (NSC241240) and oxaliplatin (NSC266046), were obtained from the National Cancer Institute (NCI) Developmental Therapeutics Program Chemical Repository (21). The FDA-approved anticancer drug set is available from the Developmental Therapeutics Program at https://dtp.cancer.gov/organization/dscb/obtaining/. […] The stock solutions were prepared in dimethyl sulfoxide (DMSO, Sigma-Aldrich, St. Louis, MO, cat. D2650), except for the platinum compounds which were prepared in saline (Quality Biological, Gaithersburg, MD, cat. 114-055-101), at 800-fold the tested concentration and stored at -70 degrees C prior to their use. All drugs and investigational agents were tested over a range starting from a high concentration at or near the clinical Cmax and decreasing in half-log increments. If the clinical Cmax for an agent had not been determined, the highest concentration tested was 10 microM, except for SN-38, which was tested at a high concentration of 1 microM.
# Cell Culture. All cells were maintained in an incubator at 37 degrees C and 5% CO2 with 95% humidity. The PDC lines were cultured according to standard operating procedures established by the NCI PDMR (https://pdmr.cancer.gov). Table 3 of the manuscript, lists the cell lines along with the number of the three cell types plated to form the mct-spheroids and media for tumor cell growth. After thawing, all PDC lines, except 997537-175-T-J1-PDC and 415267-285-R-J2-PDC, were cultured in Matrigel-coated flasks prepared with a working solution of 1X Ham's F-12 nutrient mix, without supplementation (Thermo Fisher Scientific, cat. 11765054), 100 U/mL penicillin-streptomycin (Thermo Fisher Scientific, cat. 15140122), and 2.5% Matrigel (Corning Inc., Corning, NY, cat. 354248) for the first three passages. The two PDC lines 997537-175-T-J1-PDC and 415267-285-R-J2-PDC were cultured on uncoated flasks. The 857933-349-R-J2-PDC line was cultured in 6C/Colon 1B media containing advanced DMEM/F-12 (Thermo Fisher Scientific, cat. 12634028), 10 mM HEPES (Thermo Fisher Scientific, cat. 15630080), 1X GlutaMAX supplement (Thermo Fisher Scientific, cat. 35050061), 0.1 mg/mL primocin (InvivoGen, San Diego, CA, cat. ant-pm-2), 10% defined fetal bovine serum, heat inactivated (HyClone Laboratories Inc., Logan, UT, cat. SH30070.03HI), 50% L-WRN conditioned media (ATCC, cat. CRL-3276), 1.25 mM N-Acetyl-L-cysteine (Sigma-Aldrich, cat. A9165), 10 mM nicotinamide (Sigma-Aldrich, cat. N0636), 1X B-27 supplement (Thermo Fisher Scientific, cat. 17504044), 1X N-2 supplement (Thermo Fisher Scientific, cat. […]
# 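Also: spheroids exposed to drugs for seven days before reading.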
# 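For viability, T/C in this document: 100% = DMSO vehicle control viability in luminescence.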
Compound,"viability, T/C (compound 0.000316 µM)","viability, T/C (compound 0.001 µM)","viability, T/C (compound 0.00316 µM)","viability, T/C (compound 0.01 µM)","viability, T/C (compound 0.0316 µM)","viability, T/C (compound 0.1 µM)",IC50 [nM],"viability, T/C (compound 0.316 µM)","viability, T/C (compound 1 µM)","viability, T/C (compound 3.16 µM)","viability, T/C (compound 10 µM)"
Cn1ncnc1[C@H]1c2n[nH]c(=O)c3cc(F)cc(c23)N[C@@H]1c1ccc(F)cc1,107% and 103% and 109%,95.2% and 97.2% and 98.7%,95.3% and 101% and 95.1%,107% and 103% and 104%,103% and 104% and 98.2%,91.1% and 96.3% and 85.5%,> 100,–,–,–,–
O=C(Nc1ccc(O)c(NS(=O)(=O)c2ccc(F)cc2)c1)c1ccc(-c2ccccc2)cc1,–,–,–,–,104% and 99.9% and 101%,99.1% and 96.7% and 91.7%,> 10000,102% and 97.6% and 88.4%,101% and 99.2% and 96%,103% and 99.1% and 99.2%,104% and 100% and 93.4%
CC[C@@]1(O)C(=O)OCc2c1cc1n(c2=O)Cc2cc3c(CN(C)C)c(O)ccc3nc2-1,113% and 103% and 94.6%,94.3% and 94.9% and 92.1%,106% and 97.8% and 101%,100% and 106% and 103%,91.9% and 95.4% and 91.8%,70.9% and 76% and 51.1%,> 100,–,–,–,–
